Data reported in patent publication US12331040B2 (Karyopharm Therapeutics Inc., priority 2013, dated 2025).
Read-outs that look alike come from different tables or passages of the source.

Columns and labels:
Assay in all cases: MTT cell proliferation assay
Format in all cases: cell-based
3T3 cells = details: Mus musculus, NIH3T3, approximately 64-72 hours incubation
Procedure, shortened: (§1)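 5,000-10,000 cells/well, overnight attach; 8 conc., 1 nM–30 μM; MTT ~4 h; formazan solubilized, OD 490 nm; % inhibition = (1−(ODo/OD))×100 vs neg. control; mostly duplicate, mean±SE.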

MS751 cells = details: Homo sapiens, MS751, MS751 cells, approximately 64-72 hours incubation
Procedure, shortened: as §1

Z138 cells = details: Homo sapiens, Z-138, Z138 cells, approximately 64-72 hours incubation
Procedure, shortened: as §1

[1] = read-out: MTT Assay IC50 MS-751
[2] = read-out: MTT Assay IC50, MS-751
[3] = read-out: MTT Assay IC50, Z-138

Row | Structure (SMILES) | IC50 (3T3 cells; read-out: MTT Assay IC50 3T3) [nM] | IC50 (MS751 cells; [1]) [nM] | IC50 (Z138 cells; read-out: MTT Assay IC50 Z-138) [nM] | IC50 (3T3 cells; read-out: MTT Assay IC50, 3T3) [nM] | IC50 (MS751 cells; [2]) [nM] | IC50 (Z138 cells; [3]) [nM]
1 | Nc1ccc(/C=C/C(=O)NCc2cc3cc(-c4ccc(CC(=O)N5CCOCC5)cc4)cc(Cl)c3o2)cn1 [Compound 553, (E)-3-(6-Aminopyridin-3-yl)-N-((7-chloro-5-(4-(2-morpholino-2-oxoethyl)phenyl)benzofuran-2-yl)methyl)acrylamide] | > 10000 | 100 to 5000 | 100 to 5000 |  |  | 
2 | Nc1ccc(/C=C/C(=O)NCc2cc3cc(-c4ccc(C(=O)N5CCC(F)(F)CC5)cc4)cc(-c4cccc(F)c4)c3o2)cn1 [Compound 726, (E)-3-(6-aminopyridin-3-yl)-N-((5-(4-(4,4-difluoropiperidine-1-carbonyl)phenyl)-7-(3-fluorophenyl)benzofuran-2-yl)methyl)acrylamide] |  |  |  | 100 to 5000 | < 100 | < 100
3 | Nc1ccc(/C=C/C(=O)NCc2cc3cc(-c4ccc(C(=O)c5ccc(F)cc5)cn4)cc(-c4ccc(F)cc4)c3o2)cn1 [Compound 703, (E)-3-(6-aminopyridin-3-yl)-N-((5-(5-(4-fluorobenzoyl)pyridin-2-yl)-7-(4-fluorophenyl)benzofuran-2-yl)methyl)acrylamide] |  |  |  | 5000 to 10000 | 100 to 5000 | < 100
4 | CN(C)c1ccc(-c2cc(Cl)c3oc(CNC(=O)/C=C/c4ccc(N)nc4)cc3c2)nc1 [Compound 646, (E)-3-(6-aminopyridin-3-yl)-N-((7-chloro-5-(5-(dimethylamino)pyridin-2-yl)benzofuran-2-yl)methyl)acrylamide] | > 10000 | > 10000 | > 10000 |  |  | 
5 | CC1(F)CCN(C(=O)c2ccc(-c3cc(C(F)(F)F)c4oc(CNC(=O)/C=C/c5ccc(N)nc5)cc4c3)cc2)CC1 [Compound 604, (E)-3-(6-aminopyridin-3-yl)-N-((5-(4-(4-fluoro-4-methylpiperidine-1-carbonyl)phenyl)-7-(trifluoromethyl)benzofuran-2-yl)methyl)acrylamide] | > 10000 | 100 to 5000 | 100 to 5000 |  |  | 
6 | CC1(F)CCN(C(=O)c2ccc(-c3cc(C(F)(F)F)c4oc(CNC(=O)/C=C/c5ccc(N)nc5)cc4c3)nc2)C1 (single isomer, unassigned) [Compound 654, (E)-3-(6-aminopyridin-3-yl)-N-((5-(5-(3-fluoro-3-methylpyrrolidine-1-carbonyl)pyridin-2-yl)-7-(trifluoromethyl)benzofuran-2-yl)methyl)acrylamide] | > 10000 | < 100 | < 100 |  |  | 
7 | Nc1ccc(/C=C/C(=O)NCc2cc3cc(-c4ccc(C(=S)N5CCC(F)(F)CC5)cc4)cc(-c4ccncc4)c3o2)cn1 [Compound 705, (E)-3-(6-aminopyridin-3-yl)-N-((5-(4-(4,4-difluoropiperidine-1-carbonothioyl)phenyl)-7-(pyridin-4-yl)benzofuran-2-yl)methyl)acrylamide] |  |  |  | 100 to 5000 | < 100 | < 100
8 | Nc1ccc(/C=C/C(=O)NCc2cc3cc(-c4cc(C(=O)N5CCOCC5)c(F)cn4)cc(Cl)c3o2)cn1 [Compound 588, (E)-3-(6-aminopyridin-3-yl)-N-((7-chloro-5-(5-fluoro-4-(morpholine-4-carbonyl)pyridin-2-yl)benzofuran-2-yl)methyl)acrylamide] | 100 to 5000 | < 100 | < 100 |  |  | 
9 | CC1(O)CCN(C(=O)c2ccc(-c3cc(C(F)(F)F)c4oc(CNC(=O)/C=C/c5ccc(N)nc5)cc4c3)nc2)CC1 [Compound 620, (E)-3-(6-aminopyridin-3-yl)-N-((5-(5-(4-hydroxy-4-methylpiperidine-1-carbonyl)pyridin-2-yl)-7-(trifluoromethyl)benzofuran-2-yl)methyl)acrylamide] | > 10000 | < 100 | < 100 |  |  | 
10 | Nc1ccc(/C=C/C(=O)NCCc2cc3cc(-c4ccc(C(=O)N5CCOCC5)cc4)cc(Cl)c3o2)cn1 [Compound 532, (E)-3-(6-aminopyridin-3-yl)-N-(2-(7-chloro-5-(4-(morpholine-4-carbonyl)phenyl)benzofuran-2-yl)ethyl)acrylamide] | < 100 | < 100 | < 100 |  |  | 
11 | CC1(C)C2CN(C(=O)c3ccc(-c4cc(C(F)(F)F)c5oc(CNC(=O)/C=C/c6ccc(N)nc6)cc5c4)nc3)CC21 (stereo not drawn) [Compound 631, (E)-3-(6-aminopyridin-3-yl)-N-((5-(5-(6,6-dimethyl-3-azabicyclo[3.1.0]hexane-3-carbonyl)pyridin-2-yl)-7-(trifluoromethyl)benzofuran-2-yl)methyl)acrylamide] | > 10000 | 100 to 5000 | 100 to 5000 |  |  | 
12 | O=C(/C=C/c1cccnc1)NCc1cc2cc(-c3ccc(C(=O)N4CCC(F)(F)CC4)cc3)cc(-c3ccc(F)cc3)c2o1 [Compound 729] |  |  |  | < 100 | < 100 | < 100
13 | Nc1ccc(/C=C/C(=O)NCc2cc3cc(-c4ccc(C(=O)N5CCC(F)(F)CC5)cc4)cc(-c4cc(Cl)cc(Cl)c4)c3o2)cn1 [Compound 700, (E)-3-(6-aminopyridin-3-yl)-N-((7-(3,5-dichlorophenyl)-5-(4-(4,4-difluoropiperidine-1-carbonyl)phenyl)benzofuran-2-yl)methyl)acrylamide] |  |  |  | 100 to 5000 | < 100 | < 100
14 | Cc1ccncc1-c1cc(-c2ccc(C(=O)N3CCC(F)(F)CC3)cc2)cc2cc(CNC(=O)/C=C/c3ccc(N)nc3)oc12 [Compound 744, (E)-3-(6-aminopyridin-3-yl)-N-((5-(4-(4,4-difluoropiperidine-1-carbonyl)phenyl)-7-(4-methylpyridin-3-yl)benzofuran-2-yl)methyl)acrylamide] |  |  |  | 100 to 5000 | < 100 | < 100
15 | Nc1ccc(/C=C/C(=O)NCc2cc3cc(-c4ccc(C(=O)N5CCC(F)(F)CC5)cc4)cc(Cl)c3o2)cn1 [Compound 596, (E)-3-(6-aminopyridin-3-yl)-N-((7-chloro-5-(4-(4,4-difluoropiperidine-1-carbonyl)phenyl)benzofuran-2-yl)methyl)acrylamide] | > 10000 | 100 to 5000 | 100 to 5000 |  |  | 
16 | Nc1ccc(/C=C/C(=O)NCc2cc3c(-c4ccc(C(=O)N5CCC(F)(F)CC5)cn4)cc(C(F)(F)F)cc3o2)cn1 [Compound 761, (E)-3-(6-aminopyridin-3-yl)-N-((4-(5-(4,4-difluoropiperidine-1-carbonyl)pyridin-2-yl)-6-(trifluoromethyl)benzofuran-2-yl)methyl)acrylamide] |  |  |  | > 10000 | > 10000 | > 10000
17 | Cc1cc(F)ncc1-c1cc(-c2ccc(C(=O)N3CCC(F)(F)CC3)cc2)cc2cc(CNC(=O)/C=C/c3ccc(N)nc3)oc12 [Compound 743, (E)-3-(6-aminopyridin-3-yl)-N-((5-(4-(4,4-difluoropiperidine-1-carbonyl)phenyl)-7-(6-fluoro-4-methylpyridin-3-yl)benzofuran-2-yl)methyl)acrylamide] |  |  |  | 100 to 5000 | < 100 | < 100
18 | Nc1ccc(/C=C/C(=O)NCc2nc3cc(-c4ccc(C(=O)N5CC(F)(F)C5)cc4)cc(Cl)c3o2)cn1 [Compound 509, (E)-3-(6-aminopyridin-3-yl)-N-((7-chloro-5-(4-(3,3-difluoroazetidine-1-carbonyl)phenyl)benzo[d]oxazol-2-yl)methyl)acrylamide] | > 10000 | 100 to 5000 | 100 to 5000 |  |  | 
19 | Nc1ccc(/C=C/C(=O)NCc2cc3cc(-c4ccc(C(=O)N5CC[C@@H](F)C5)cc4)cc(Cl)c3o2)cn1 [Compound 523, (R,E)-3-(6-aminopyridin-3-yl)-N-((7-chloro-5-(4-(3-fluoropyrrolidine-1-carbonyl)phenyl)benzofuran-2-yl)methyl)acrylamide] | > 10000 | > 10000 | > 10000 |  |  | 
20 | Nc1ccc(/C=C/C(=O)NCc2cc3cc(-c4ccc(C(=O)N5CCC(F)(F)CC5)cc4F)cc(-c4ccc(F)c(Cl)c4)c3o2)cn1 [Compound 757, (E)-3-(6-aminopyridin-3-yl)-N-((7-(3-chloro-4-fluorophenyl)-5-(4-(4,4-difluoropiperidine-1-carbonyl)-2-fluorophenyl)benzofuran-2-yl)methyl)acrylamide] |  |  |  | > 10000 | < 100 | < 100
21 | Nc1ccc(/C=C/C(=O)NCc2cc3cc(-c4ccc(S(=O)(=O)N5CC(F)C5)cc4)cc(Cl)c3o2)cn1 [Compound 533, (E)-3-(6-aminopyridin-3-yl)-N-((7-chloro-5-(4-(3-fluoroazetidin-1-ylsulfonyl)phenyl)benzofuran-2-yl)methyl)acrylamide] | > 10000 | 100 to 5000 | 100 to 5000 |  |  | 
22 | Nc1ccc(/C=C/C(=O)NCc2nc3cc(-c4ccc(C(=O)N5CCOCC5)cc4)cc(Cl)c3o2)cn1 [Compound 501, (E)-3-(6-aminopyridin-3-yl)-N-((7-chloro-5-(4-(morpholine-4-carbonyl)phenyl)benzo[d]oxazol-2-yl)methyl)acrylamide] | > 10000 | 100 to 5000 | 100 to 5000 |  |  | 
23 | Nc1ccc(/C=C/C(=O)NCc2cc3cc(-c4ccc(C(=O)N5CCC(F)(F)CC5)cn4)cc(-c4ccncc4)c3o2)cn1 [Compound 666, (E)-3-(6-aminopyridin-3-yl)-N-((5-(5-(4,4-difluoropiperidine-1-carbonyl)pyridin-2-yl)-7-(pyridin-4-yl)benzofuran-2-yl)methyl)acrylamide] |  |  |  | 100 to 5000 | < 100 | < 100
